Experiments:
[1] = biological target: T1, Phosphatidylinositol 4,5-bisphosphate 3-kinase catalytic subunit delta isoform (Homo sapiens, UniProt O00329); experiment: Binding affinity to PI3Kdelta (unknown origin); details: read-out: Ki(app)
T1 sequence (O00329 whole entry): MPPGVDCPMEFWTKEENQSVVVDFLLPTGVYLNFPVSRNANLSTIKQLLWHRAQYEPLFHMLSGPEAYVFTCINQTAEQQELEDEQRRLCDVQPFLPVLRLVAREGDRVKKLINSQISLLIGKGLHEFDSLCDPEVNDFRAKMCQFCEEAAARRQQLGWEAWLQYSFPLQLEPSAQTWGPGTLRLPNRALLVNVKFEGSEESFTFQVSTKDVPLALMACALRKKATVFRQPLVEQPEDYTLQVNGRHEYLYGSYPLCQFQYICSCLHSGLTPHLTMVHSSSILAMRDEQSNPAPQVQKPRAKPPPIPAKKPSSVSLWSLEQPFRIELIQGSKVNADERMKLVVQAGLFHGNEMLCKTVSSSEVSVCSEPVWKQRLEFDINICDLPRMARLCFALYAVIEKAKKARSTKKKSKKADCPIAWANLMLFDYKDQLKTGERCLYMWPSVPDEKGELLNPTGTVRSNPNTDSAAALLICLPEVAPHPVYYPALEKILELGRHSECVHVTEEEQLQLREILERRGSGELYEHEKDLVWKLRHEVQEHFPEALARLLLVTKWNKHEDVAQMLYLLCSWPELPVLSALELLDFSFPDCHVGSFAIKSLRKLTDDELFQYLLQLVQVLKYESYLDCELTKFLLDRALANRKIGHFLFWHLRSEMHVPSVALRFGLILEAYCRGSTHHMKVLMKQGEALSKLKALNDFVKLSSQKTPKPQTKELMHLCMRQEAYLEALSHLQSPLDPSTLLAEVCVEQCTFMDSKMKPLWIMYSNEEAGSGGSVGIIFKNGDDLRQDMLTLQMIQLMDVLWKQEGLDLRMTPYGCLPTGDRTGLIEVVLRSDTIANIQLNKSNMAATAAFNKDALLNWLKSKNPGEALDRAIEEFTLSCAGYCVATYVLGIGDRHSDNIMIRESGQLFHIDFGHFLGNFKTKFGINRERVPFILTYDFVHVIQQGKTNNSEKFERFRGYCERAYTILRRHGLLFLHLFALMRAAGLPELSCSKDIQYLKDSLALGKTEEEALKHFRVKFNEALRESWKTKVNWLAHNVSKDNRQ

[2] = Stability in human liver microsomes at 1 uM in presence of NADPH by LC-MS/MS analysis; format: ADME, microsome; details: read-out: Stability
[3] = Apparent permeability from apical to basolateral side in MDCKI cells at 10 uM after 2 hrs; format: ADME, cell-based, Canis lupus familiaris; details: dog, MDCK
[4] = biological target: T1, Phosphatidylinositol 4,5-bisphosphate 3-kinase catalytic subunit delta isoform; experiment: Inhibition of PI3Kdelta in human whole blood assessed as suppression of CD69 expression

## CC(C)n1ncnc1-c1cn2c(n1)-c1cc(CN3CCN(C(C)(C)C)CC3)ccc1OCC2
[1]
  Ki: 2.5 nM
[2]
  CLhep predicted at 1 µM: 9.7 mL/min/kg

## CC(C)n1ncnc1-c1cn2c(n1)-c1cc(C(=O)N3CCN(C(C)(C)C)CC3)ccc1OCC2
[1]
  Ki: 1.7 nM
[2]
  CLhep predicted at 1 µM: 14 mL/min/kg

## Cc1nc(-c2cn3c(n2)-c2cc([C@@H](C)N4CCN(C(C)(C)C)CC4)c(F)cc2OCC3)n(C(C)C)n1
[1]
  Ki: 0.78 nM
[2]
  CLhep predicted at 1 µM: 15 mL/min/kg
[3]
  Papp A→B at 2 h, 10 µM: 13.6 ×10⁻⁶ cm/s
[4]
  IC50: 15 nM

## Cc1nc(-c2cn3c(n2)-c2cc([C@H](C)N4CCN(C(C)(C)C)CC4)c(F)cc2OCC3)n(C(C)C)n1
[1]
  Ki: 2.4 nM

## Cc1nc(-c2cn3c(n2)-c2cc([C@@H](C)N4CCN(C(C)(C)C)CC4)c(C)cc2OCC3)n(C(C)C)n1
[2]
  CLhep predicted at 1 µM: 8.4 mL/min/kg
[3]
  Papp A→B at 2 h, 10 µM: 14.2 ×10⁻⁶ cm/s

## Cc1nc(-c2cn3c(n2)-c2cc([C@H](C)N4CCN(C(C)(C)C)CC4)ncc2OCC3)n(C(C)C)n1
[1]
  Ki: 1.9 nM
[2]
  CLhep predicted at 1 µM: < 3.9 mL/min/kg
[3]
  Papp A→B at 2 h, 10 µM: 10 ×10⁻⁶ cm/s
[4]
  IC50: 28 nM

## Cc1nc(-c2cn3c(n2)-c2cc([C@@H](C)N4CCN(C(C)(C)C)CC4)ncc2OCC3)n(C(C)C)n1
[1]
  Ki: 2.8 nM

## CC(C)n1ncnc1-c1cn2c(n1)-c1cc(S(=O)(=O)N3CCN(C(C)(C)C)CC3)ccc1OCC2
[1]
  Ki: 1.2 nM
[2]
  CLhep predicted at 1 µM: 20 mL/min/kg

## CC(C)n1ncnc1-c1cn2c(n1)-c1cc(CN3CCC(C(C)(C)O)CC3)ccc1OCC2
[1]
  Ki: 20 nM
[2]
  CLhep predicted at 1 µM: 6.8 mL/min/kg

## CC(C)n1ncnc1-c1cn2c(n1)-c1cc([S@+]([O-])C3CCN(C(C)(C)C)CC3)ccc1OCC2
[1]
  Ki: 12 nM
[2]
  CLhep predicted at 1 µM: 12 mL/min/kg

## CC(C)n1ncnc1-c1cn2c(n1)-c1cc([S@@+]([O-])C3CCN(C(C)(C)C)CC3)ccc1OCC2
[1]
  Ki: 0.81 nM
[2]
  CLhep predicted at 1 µM: 17 mL/min/kg
